From patent US5236955A, “Anti-fungal agent” (Washington University, priority 1992, dated 1993)

Legend:
C. neoformans [1] = test: Growth of C. neoformans cultures (absorbance at 600 nm); format: cell-based, Cryptococcus neoformans; conditions: single 300 μM dose, exponential phase, 30° C., SAB, up to 24 h
Experimental: Panel A, survey of the effects of several oxatetradecanoic acids on the growth of C. neoformans. A culture of C. neoformans was grown at 30° C. in SAB media to midlog phase (A600 ~0.5). A single dose of fatty acid was then added to subcultures (final concentration=300 μM). EtOH(0.1%) was used as a negative control. Amphotericin B (AmB) was added (final concentraton=55 μM) as a positive control. Aliquots were withdrawn from the subcultures 0, 0.5, 2, 4, 7, 21, and 24 h after these additions and then absorbance at 600 nm was measured. All assays were done in duplicate or triplicate. A representative test is shown. Panel B, survey of the effects of oxatetradecanoic acids, dioxatetradecanoic acids and oxatridecanoic acids on the viability of C. neoformans. Fatty acid analog was added to the cultures as in Panel A. Aliquots were withdrawn 0.5, 2, 4, 7 or 8, and 24 h later and plated on SAB-agar at various dilutions to determine the number of viable organisms/ml culture. All assays were done in duplicate. Data from a representative test are expressed as the ratio of viable cells in treated cultures relative to a control culture that received 0.1% EtOH. A positive control culture received a single dose of amphotericin B (55 μM); Panel C, dose-dependent reduction in the viability of C. neoformans after addition of 4-oxatetradecanoic acid (O4) to cultures during log-phase growth at 30° C. in SAB. A single dose of the analog was given at T=0 h in the amount indicated and aliquots of the culture were withdrawn at various times to determine the number of viable cells. All assays were done in triplicate. A representative test is shown.
Saccharomyces cerevisiae strain YM2061 (MATa ura3-52 his3Δ200 ade2-101 lys2-801 met LEU2::pRY181 can1; Flick and Johnston, Mol. Cell. Biol. 10, 4757-4769 (1990), Candida albicans strain B311 (obtained from the American Type Tissue Culture, Rockville, Md.), or Cryptococcus neoformans strain L210425 (a clinical isolate that is part of the permanent culture collection of the Mycology Laboratory, Barnes Hospital, St. Louis, Mo.) were grown overnight at 30 C. The S. cerevisiae strain was incubated in YPD medium (1% bacto-yeast extract, Gibco, Long Island, N.Y.), 2% bacto-peptone (Gibco), 2% dextrose). The C. albicans and C. neoformans strains were grown in Sabouraud's media (SAB; 2% (w/v) dextrose, 1% bacto-peptone). The following morning the cultures were diluted into fresh medium to the desired density at 600 nm (early log phase), and subsequently incubated in a rotary shaker at 30° C. until an A600 =0.5 (mid log phase) was achieved. The culture was then divided into 10 ml aliquots. A single 10 μl aliquot of a stock solution of fatty acid analog (prepared in various concentrations using absolute ethanol) was added to the culture so that the final concentration of the compound was 100-500 μM (T=0). Ten microliters of ethanol alone was added to one 10 ml culture which served as the negative control. […] Cell viability was determined at each of these time points by (i) serially diluting the aliquot in 0.15M NaCl and counting cell number in a hemocytometer and (ii) plating 2-3 of the dilutions in triplicate onto plates of SAB/agar (C. albicans and C. neoformans) or YPD/agar (S. cerevisiae). […] The data were expressed as the ratio of viable cells/ml in the fatty acid analog treated subculture to the number of viable cells/ml in the negative (ethanol) control culture. […]

C. neoformans [2] = test: Metabolic stability of O4 and resistance in C. neoformans cultures; format: cell-based, Cryptococcus neoformans
Experimental: Cultreus of C. neoformans were exposed to a single dose of 300 μM O4 or 0.1% EtOH during mid-log phase growth (O4A, EtOH1) as in FIG. 1. Two hours later, an aliquot was removed from the culture and subjected to centrifugation at 1500×g for 10 min. The "used" O4-containing media was added to EtOH-treated cells (O4B). "Fresh" O4 was added to cells (final concentration=300 μM) that had already been exposed to O4 for 2 h (O4C). at 24 H, O4-treated cells were again pelleted and resuspended in "fresh" O4-containing media (final concentration=300 μM (O4E)). The "used" O4 media was added to a fresh culture of untreated cells (O4D) and their growth was compared to an identical population of cells treated with EtOH alone (EtOH2).
A series of tests were conducted to assess the metabolic stability of the compound (FIG. 2). Media was harvested from cells treated with a single dose of 300 μM O4 for 2 hr or for 24 hr and added to a exponentially growing culture of C. neoformans that had never been exposed to fatty acid analog. 100 fold and 10 fold decreases (respectively) in viable cell number were observed over the ensuing 2 hr (O4B and O4D in FIG. 2). […] Exponentially growing cultures were also exposed to a single 300 μM dose of O4, a single dose of 0.1% EtOH, or to no additions. Aliquots of each of the cultures were removed 4 and 24 hr later and plated on Sabouraud/agar. […]

S. cerevisiae = test: Viability of S. cerevisiae; format: cell-based; conditions: Saccharomyces cerevisiae
Experimental: Oxatetradecanoic acids were added (final concentraton=25-500 μM) as a single dose to log phase cultures of C. alibcans grown in SAB at 30° C. (Panels A and B) and to log phase cultures of S. cerevisiae grown in YPD at 30° C. (Panels C and D). The results were compared to the number of viable organisms present in cultures treated with 0.1% EtOH alone. […] A single does of alphotericin B (final concentration=55 μM) was added to parallel cultures which served as positive controls. Assays were done in duplicate. Representative tests are shown.
Saccharomyces cerevisiae strain YM2061 (MATa ura3-52 his3Δ200 ade2-101 lys2-801 met LEU2::pRY181 can1; Flick and Johnston, Mol. Cell. Biol. 10, 4757-4769 (1990), Candida albicans strain B311 (obtained from the American Type Tissue Culture, Rockville, Md.), or Cryptococcus neoformans strain L210425 (a clinical isolate that is part of the permanent culture collection of the Mycology Laboratory, Barnes Hospital, St. Louis, Mo.) were grown overnight at 30 C. The S. cerevisiae strain was incubated in YPD medium (1% bacto-yeast extract, Gibco, Long Island, N.Y.), 2% bacto-peptone (Gibco), 2% dextrose). The C. albicans and C. neoformans strains were grown in Sabouraud's media (SAB; 2% (w/v) dextrose, 1% bacto-peptone). The following morning the cultures were diluted into fresh medium to the desired density at 600 nm (early log phase), and subsequently incubated in a rotary shaker at 30° C. until an A600 =0.5 (mid log phase) was achieved. The culture was then divided into 10 ml aliquots. A single 10 μl aliquot of a stock solution of fatty acid analog (prepared in various concentrations using absolute ethanol) was added to the culture so that the final concentration of the compound was 100-500 μM (T=0). Ten microliters of ethanol alone was added to one 10 ml culture which served as the negative control. Amphotericin B (AmB; in the form of Fungizone, Squibb) was added (final concentration=55 μM) to another culture which served as the positive control. At T=0 and 0.5-24 h after addition of fatty acid analog to the subcultures, an aliquot was removed for determining the density of the subculture at 600 nm. Cell viability was determined at each of these time points by (i) serially diluting the aliquot in 0.15M NaCl and counting cell number in a hemocytometer and (ii) plating 2-3 of the dilutions in triplicate onto plates of SAB/agar (C. albicans and C. neoformans) or YPD/agar (S. cerevisiae). These plates were subsequently incubated at 30° C. for 24-48 hr to allow for the growth of colonies. The data were expressed as the ratio of viable cells/ml in the fatty acid analog treated subculture to the number of viable cells/ml in the negative (ethanol) control culture.

HIV-1 = conditions: acutely infected human T lymphocyte cell line; cited from earlier work

With `CCCCCCCCCCOCCC(=O)O` [O4, 4-oxatetradecanoic acid] the “effect on growth of C. neoformans, as determined by optical density” value (C. neoformans [1]) was “growth arrest equivalent to that observed with 55 μM amphotericin B”, the log reduction at 300 µM (C. neoformans [2]; Cryptococcus neoformans, cells already exposed for 2 hr or 24 hr (O4C, O4E), read-out: further reduction in viable cell number on fresh 300 μM media (converted)) was 0.699 and the “resistance or tolerance of cells after exposure” value (C. neoformans [2]; colonies from cultures exposed 4 and 24 hr, re-exposed to 300 μM) was “do not become resistant or tolerant”. For the same compound, the log reduction at 300 µM (S. cerevisiae; 300 μM, 2 hr after addition, read-out: reductions in the number of viable S. cerevisiae) was less than 0.699, the log reduction at 500 µM (S. cerevisiae; 500 μM, read-out: reduction in the number of viable organisms (S. cerevisiae)) was 1 to 2 and the HIV-1 replication (HIV-1) was “inhibits HIV-1 replication”.
